The record followed here is article PMC9578392, “Safety, Tolerability, and Pharmacokinetics of the Novel Antiviral Agent Ensitrelvir Fumaric Acid, a SARS-CoV-2 3CL Protease Inhibitor, in Healthy Adults” (Antimicrobial Agents and Chemotherapy, 2022).

The data set relates to CYP3A. In words: Drug-drug interaction with midazolam (cohort G). The note with it: ensitrelvir 750/250 mg, from increase in AUC0-inf of midazolam.

For `Cn1cnc(Cn2c(=O)[nH]/c(=N\c3cc4cn(C)nc4cc3Cl)n(Cc3cc(F)c(F)cc3F)c2=O)n1` [Ensitrelvir, ensitrelvir fumaric acid], the CYP3A inhibition classification entry is “strong CYP3A inhibitor”.
